ChEMBL document CHEMBL1201862, “PubChem BioAssay data set” (2004)
One block for each molecule: values may come before it. Activity calls are given as the source filed them.

What was measured:
[1] = target: Delta-type opioid receptor (Homo sapiens, UniProt P41143); test: Counterscreen for agonists of heterodimerization of the mu 1 (OPRM1) and delta 1 (OPRD1) opioid receptors: Luminescence-based cell-based high throughput dose response assay to identify agonists of OPRD1 homodimerization. [Related pubchem assays (depositor defined):AID504326, AID504355, AID504692, AID504904, AID504905]; format: functional
[2] = target: 5-hydroxytryptamine receptor 5A (Homo sapiens, UniProt P47898); test: Counterscreen for agonists of OPRM1-OPRD1 heterodimerization: luminescence-based cell-based high throughput dose response assay to identify agonists of 5-hydroxytryptamine (serotonin) 5A receptor (HTR5A). [Related pubchem assays (depositor defined):AID504326, AID504355, AID504692, AID504904, AID504905]; format: functional
[3] = target: T1, Short transient receptor potential channel 4 (Mus musculus, UniProt Q9QUQ5); test: mouse TRPC4 channel inhibitors, dose response, cell-based, HEK293 TRPC4/mu-opioid, Fluo-4 calcium (AID 434942); format: functional;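 note: potency of inhibitors blocking the TRPC4 calcium response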
T1 sequence (Q9QUQ5 whole entry): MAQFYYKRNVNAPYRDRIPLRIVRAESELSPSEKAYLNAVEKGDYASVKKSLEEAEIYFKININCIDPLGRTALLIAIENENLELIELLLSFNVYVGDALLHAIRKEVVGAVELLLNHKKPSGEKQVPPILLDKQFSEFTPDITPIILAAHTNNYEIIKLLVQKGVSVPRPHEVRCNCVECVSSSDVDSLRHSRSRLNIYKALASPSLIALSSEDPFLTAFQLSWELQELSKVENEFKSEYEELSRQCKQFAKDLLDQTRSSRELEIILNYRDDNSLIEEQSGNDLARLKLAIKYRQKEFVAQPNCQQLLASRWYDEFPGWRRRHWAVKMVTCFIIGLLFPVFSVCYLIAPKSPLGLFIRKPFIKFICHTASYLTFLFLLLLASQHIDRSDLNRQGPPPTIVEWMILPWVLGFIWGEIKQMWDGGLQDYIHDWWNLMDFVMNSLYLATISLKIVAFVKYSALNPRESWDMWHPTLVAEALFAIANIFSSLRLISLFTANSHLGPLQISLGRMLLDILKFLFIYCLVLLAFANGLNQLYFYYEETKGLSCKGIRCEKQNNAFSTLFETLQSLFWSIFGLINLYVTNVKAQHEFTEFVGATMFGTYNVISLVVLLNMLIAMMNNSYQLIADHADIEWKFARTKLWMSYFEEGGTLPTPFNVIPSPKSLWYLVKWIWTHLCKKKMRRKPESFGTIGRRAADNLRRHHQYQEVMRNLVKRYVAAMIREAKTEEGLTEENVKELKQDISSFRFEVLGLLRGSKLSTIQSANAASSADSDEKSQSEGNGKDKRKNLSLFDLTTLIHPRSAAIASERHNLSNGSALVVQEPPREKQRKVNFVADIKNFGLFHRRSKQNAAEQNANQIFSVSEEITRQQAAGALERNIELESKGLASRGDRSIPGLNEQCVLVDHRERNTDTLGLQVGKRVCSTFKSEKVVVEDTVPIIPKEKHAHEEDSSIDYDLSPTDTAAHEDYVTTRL

Mu-type opioid receptor = Mu-type opioid receptor (Homo sapiens, UniProt P35372); test: Counterscreen for agonists of heterodimerization of the mu 1 (OPRM1) and delta 1 (OPRD1) opioid receptors: Luminescence-based cell-based high throughput dose response assay to identify agonists of OPRM1 homodimerization.; format: functional;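 note: U2OS cells expressing OPRM1 and beta-arrestin as split beta-galactosidase partners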
[4] = target: Dual specificity protein kinase CLK1 (Homo sapiens, UniProt P49759); test: CLK1 kinase inhibitors, off-target check, dose response, selectivity assay for Dyrk1A inhibitor project, biochemical, cherry-picked samples (AID 588811)
[5] = target: Dual specificity tyrosine-phosphorylation-regulated kinase 1A (Rattus norvegicus, UniProt Q63470); format: biochemical, Homo sapiens
[6] = target: FAD-linked sulfhydryl oxidase ALR (Homo sapiens, UniProt P55789); test: inhibitors of human ALR sulfhydryl oxidase, dose response, biochemical, H2O2 detection, luminescence, cherry-pick (AID 493248)
[7] = inhibitors of intracellular T. cruzi replication, confirmation, NIH3T3 host cells, beta-gal luminescence (AID 2044); format: functional, cell-based;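 note: intracellular parasites grown in NIH/3T3 mouse fibroblasts as host cells; luminescent beta-galactosidase reporter signal from transgenic T. cruzi replicating inside host cells; inhibitors lower the luminescence signal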
[8] = cytotoxicity toward NIH3T3 fibroblasts, dose response, counter-screen, cell-based, ATP luminescence, mouse fibroblasts (AID 2010); format: functional;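 note: cells exposed to compound for about 90 hours before reading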
[9] = target: ADP-ribosylation factor GTPase-activating protein 1 (Rattus norvegicus, UniProt Q62848); test: Fluorescence polarization-based biochemical high throughput dose response screening assay to identify inhibitors of ADP-ribosylation factor GTPase activating protein 1 (ARFGAP1).; format: functional
HEK293 [10] = test: cells; format: functional, cell-based; settings: Homo sapiens
[11] = CRF-BP/CRF-R2 complex antagonists, dose response, cell-based, uHTS hits, 384-well (AID 651639); format: functional, Homo sapiens; settings: read-out: IC50_Mean
HEK293 [12] = test: cells; format: functional, cell-based; settings: Homo sapiens; remark: listed apart in the source
[13] = target: T2, Corticotropin-releasing factor receptor 2/Corticotropin-releasing factor-binding protein (Homo sapiens, UniProt P24387+Q13324); test: activators of CRF receptor 2 with binding protein – uHTS hits, confirmation (AID 602473); format: functional; settings: read-out: EC50_Mean
T2 sequence (Q13324 whole entry): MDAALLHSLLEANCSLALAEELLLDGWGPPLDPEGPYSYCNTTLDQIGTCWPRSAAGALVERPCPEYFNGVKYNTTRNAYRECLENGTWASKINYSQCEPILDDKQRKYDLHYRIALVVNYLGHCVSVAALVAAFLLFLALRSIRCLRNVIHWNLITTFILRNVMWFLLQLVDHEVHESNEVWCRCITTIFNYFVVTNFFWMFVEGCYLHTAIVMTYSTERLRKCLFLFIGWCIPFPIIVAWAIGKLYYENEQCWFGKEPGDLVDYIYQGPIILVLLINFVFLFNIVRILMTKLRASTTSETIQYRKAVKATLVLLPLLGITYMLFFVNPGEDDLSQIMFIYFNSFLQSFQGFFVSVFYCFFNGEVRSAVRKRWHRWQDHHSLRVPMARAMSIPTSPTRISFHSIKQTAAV
T2 sequence (P24387 whole entry): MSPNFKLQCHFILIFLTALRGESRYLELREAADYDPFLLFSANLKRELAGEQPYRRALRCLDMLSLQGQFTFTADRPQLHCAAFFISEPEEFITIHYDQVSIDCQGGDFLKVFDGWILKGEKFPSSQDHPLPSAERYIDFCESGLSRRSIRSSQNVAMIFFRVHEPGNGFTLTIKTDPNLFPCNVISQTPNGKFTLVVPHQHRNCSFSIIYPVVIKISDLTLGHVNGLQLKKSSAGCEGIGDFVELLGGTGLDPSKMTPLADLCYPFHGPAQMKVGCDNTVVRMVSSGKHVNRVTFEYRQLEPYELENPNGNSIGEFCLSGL

Tumor necrosis factor = Tumor necrosis factor (Homo sapiens, UniProt P01375); test: TNFa-triggered NF-kB activation inhibitors, SAR follow-up, cell-based, revised (AID 2337); format: functional
HEK293 [14] = test: cells; settings: Homo sapiens
HEK293 [15] = test: NOD2 signaling inhibitors in MDP-stimulated cells, cell-based, uHTS, luminescence (AID 2001); format: functional; settings: Homo sapiens
HEK293 [16] = test: NOD1 signaling inhibitors, primary screen, cell-based, luminescence, uHTS (AID 1578); format: functional; settings: Homo sapiens
HEK293 [17] = test: cells; format: functional, cell-based; settings: Homo sapiens; remark: listed apart in the source
[18] = target: Nucleotide-binding oligomerization domain-containing protein 2 (Homo sapiens, UniProt Q9HC29); test: NOD2 signaling inhibitors, cell-based, luminescence, uHTS, HEK293 (AID 1566); format: functional
[19] = target: Nucleotide-binding oligomerization domain-containing protein 1 (Homo sapiens, UniProt Q9Y239); test: NOD1 signaling inhibitors, SAR follow-up, revised (AID 2333); format: functional
[20] = target: T2, Corticotropin-releasing factor receptor 2/Corticotropin-releasing factor-binding protein; test: Dose Response confirmation of uHTS hits for small molecule antagonists of the CRF-binding protein and CRF-R2 receptor complex.; format: functional; settings: read-out: IC50_Mean

Sequence of Dual specificity protein kinase CLK1 (P49759 whole entry): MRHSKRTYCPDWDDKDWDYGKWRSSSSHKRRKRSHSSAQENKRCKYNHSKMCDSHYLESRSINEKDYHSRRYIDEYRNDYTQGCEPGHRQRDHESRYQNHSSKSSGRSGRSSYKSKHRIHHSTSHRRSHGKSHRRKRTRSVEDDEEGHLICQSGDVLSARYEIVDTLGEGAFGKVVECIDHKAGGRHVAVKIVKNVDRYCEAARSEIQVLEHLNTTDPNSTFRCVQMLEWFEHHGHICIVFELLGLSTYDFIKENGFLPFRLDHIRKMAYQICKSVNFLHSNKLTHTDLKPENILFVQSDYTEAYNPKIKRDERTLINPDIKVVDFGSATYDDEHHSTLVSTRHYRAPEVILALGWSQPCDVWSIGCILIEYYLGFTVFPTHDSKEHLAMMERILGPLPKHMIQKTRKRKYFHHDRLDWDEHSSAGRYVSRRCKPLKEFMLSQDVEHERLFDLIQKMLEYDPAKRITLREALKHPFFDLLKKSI
Sequence of FAD-linked sulfhydryl oxidase ALR (P55789 whole entry): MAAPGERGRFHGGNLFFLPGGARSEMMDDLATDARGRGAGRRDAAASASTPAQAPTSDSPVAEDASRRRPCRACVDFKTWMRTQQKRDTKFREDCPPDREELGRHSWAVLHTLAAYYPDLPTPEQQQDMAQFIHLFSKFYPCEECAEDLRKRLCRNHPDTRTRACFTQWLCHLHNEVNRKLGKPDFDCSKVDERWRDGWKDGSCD
Sequence of ADP-ribosylation factor GTPase-activating protein 1 (Q62848 whole entry): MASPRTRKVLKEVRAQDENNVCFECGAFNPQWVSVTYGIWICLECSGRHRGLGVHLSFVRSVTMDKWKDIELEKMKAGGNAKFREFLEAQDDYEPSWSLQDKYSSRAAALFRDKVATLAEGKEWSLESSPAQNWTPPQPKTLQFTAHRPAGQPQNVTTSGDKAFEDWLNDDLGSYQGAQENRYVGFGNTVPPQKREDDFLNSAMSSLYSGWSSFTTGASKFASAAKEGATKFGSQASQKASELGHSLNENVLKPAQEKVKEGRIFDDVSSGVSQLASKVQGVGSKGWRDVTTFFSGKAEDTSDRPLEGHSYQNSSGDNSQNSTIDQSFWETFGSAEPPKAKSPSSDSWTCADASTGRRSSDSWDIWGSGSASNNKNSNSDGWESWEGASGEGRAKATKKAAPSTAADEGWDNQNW
Sequence of 5-hydroxytryptamine receptor 5A (P47898 whole entry): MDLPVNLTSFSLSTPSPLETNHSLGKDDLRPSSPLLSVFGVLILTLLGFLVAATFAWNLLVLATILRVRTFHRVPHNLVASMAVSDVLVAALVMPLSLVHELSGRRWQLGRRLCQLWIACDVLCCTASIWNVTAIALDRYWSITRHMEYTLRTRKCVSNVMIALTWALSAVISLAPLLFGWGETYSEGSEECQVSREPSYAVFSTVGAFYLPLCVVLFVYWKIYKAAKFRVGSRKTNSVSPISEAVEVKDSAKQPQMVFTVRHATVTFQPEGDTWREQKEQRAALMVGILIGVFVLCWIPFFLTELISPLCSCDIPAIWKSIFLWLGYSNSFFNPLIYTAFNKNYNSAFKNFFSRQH
Sequence of Nucleotide-binding oligomerization domain-containing protein 2 (Q9HC29 whole entry, the tested form may be a part): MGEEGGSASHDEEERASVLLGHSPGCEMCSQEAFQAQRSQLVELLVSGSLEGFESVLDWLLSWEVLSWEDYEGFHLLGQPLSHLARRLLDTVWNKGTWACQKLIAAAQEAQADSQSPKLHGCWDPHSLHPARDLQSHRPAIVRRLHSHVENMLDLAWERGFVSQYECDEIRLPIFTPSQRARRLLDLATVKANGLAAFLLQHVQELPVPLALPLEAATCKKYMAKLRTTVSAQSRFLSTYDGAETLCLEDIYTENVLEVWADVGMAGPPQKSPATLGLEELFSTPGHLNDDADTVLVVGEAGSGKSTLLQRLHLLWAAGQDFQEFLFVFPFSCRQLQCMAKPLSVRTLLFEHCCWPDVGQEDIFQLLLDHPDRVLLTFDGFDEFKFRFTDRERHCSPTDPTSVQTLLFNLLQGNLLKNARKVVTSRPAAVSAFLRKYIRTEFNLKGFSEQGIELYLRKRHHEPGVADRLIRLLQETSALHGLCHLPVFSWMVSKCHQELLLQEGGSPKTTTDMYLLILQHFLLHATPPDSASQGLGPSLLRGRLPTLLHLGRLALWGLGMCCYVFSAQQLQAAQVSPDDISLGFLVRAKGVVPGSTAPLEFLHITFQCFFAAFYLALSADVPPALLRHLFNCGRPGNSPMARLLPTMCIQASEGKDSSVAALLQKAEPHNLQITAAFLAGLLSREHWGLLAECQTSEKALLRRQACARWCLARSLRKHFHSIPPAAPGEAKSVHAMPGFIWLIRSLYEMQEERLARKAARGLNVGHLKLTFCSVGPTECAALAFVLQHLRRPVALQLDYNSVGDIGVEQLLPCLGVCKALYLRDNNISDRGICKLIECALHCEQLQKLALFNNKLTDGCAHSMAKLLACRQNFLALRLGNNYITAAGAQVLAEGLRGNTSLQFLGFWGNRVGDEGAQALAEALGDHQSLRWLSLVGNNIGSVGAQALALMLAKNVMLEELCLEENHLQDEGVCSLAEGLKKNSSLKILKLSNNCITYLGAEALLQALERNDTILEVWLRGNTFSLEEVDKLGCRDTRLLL
Sequence of Tumor necrosis factor (P01375 whole entry): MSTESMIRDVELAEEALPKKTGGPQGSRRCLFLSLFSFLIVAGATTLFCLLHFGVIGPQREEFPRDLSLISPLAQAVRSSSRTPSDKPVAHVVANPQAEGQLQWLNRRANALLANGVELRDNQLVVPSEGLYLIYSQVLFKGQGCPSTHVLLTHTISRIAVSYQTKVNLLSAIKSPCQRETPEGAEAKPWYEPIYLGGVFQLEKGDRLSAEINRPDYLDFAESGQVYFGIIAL
Sequence of Mu-type opioid receptor (P35372 whole entry): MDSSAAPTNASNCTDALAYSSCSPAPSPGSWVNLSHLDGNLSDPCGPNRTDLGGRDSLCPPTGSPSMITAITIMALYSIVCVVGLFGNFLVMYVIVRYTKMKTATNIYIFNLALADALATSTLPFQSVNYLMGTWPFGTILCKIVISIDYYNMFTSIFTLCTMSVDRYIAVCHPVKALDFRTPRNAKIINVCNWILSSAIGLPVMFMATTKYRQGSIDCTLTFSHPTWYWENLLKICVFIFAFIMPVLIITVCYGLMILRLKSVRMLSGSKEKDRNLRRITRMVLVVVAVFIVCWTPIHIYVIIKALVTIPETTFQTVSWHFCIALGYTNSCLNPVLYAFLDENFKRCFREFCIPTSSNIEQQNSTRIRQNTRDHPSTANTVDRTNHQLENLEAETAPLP
Sequence of Nucleotide-binding oligomerization domain-containing protein 1 (Q9Y239 whole entry, the tested form may be a part): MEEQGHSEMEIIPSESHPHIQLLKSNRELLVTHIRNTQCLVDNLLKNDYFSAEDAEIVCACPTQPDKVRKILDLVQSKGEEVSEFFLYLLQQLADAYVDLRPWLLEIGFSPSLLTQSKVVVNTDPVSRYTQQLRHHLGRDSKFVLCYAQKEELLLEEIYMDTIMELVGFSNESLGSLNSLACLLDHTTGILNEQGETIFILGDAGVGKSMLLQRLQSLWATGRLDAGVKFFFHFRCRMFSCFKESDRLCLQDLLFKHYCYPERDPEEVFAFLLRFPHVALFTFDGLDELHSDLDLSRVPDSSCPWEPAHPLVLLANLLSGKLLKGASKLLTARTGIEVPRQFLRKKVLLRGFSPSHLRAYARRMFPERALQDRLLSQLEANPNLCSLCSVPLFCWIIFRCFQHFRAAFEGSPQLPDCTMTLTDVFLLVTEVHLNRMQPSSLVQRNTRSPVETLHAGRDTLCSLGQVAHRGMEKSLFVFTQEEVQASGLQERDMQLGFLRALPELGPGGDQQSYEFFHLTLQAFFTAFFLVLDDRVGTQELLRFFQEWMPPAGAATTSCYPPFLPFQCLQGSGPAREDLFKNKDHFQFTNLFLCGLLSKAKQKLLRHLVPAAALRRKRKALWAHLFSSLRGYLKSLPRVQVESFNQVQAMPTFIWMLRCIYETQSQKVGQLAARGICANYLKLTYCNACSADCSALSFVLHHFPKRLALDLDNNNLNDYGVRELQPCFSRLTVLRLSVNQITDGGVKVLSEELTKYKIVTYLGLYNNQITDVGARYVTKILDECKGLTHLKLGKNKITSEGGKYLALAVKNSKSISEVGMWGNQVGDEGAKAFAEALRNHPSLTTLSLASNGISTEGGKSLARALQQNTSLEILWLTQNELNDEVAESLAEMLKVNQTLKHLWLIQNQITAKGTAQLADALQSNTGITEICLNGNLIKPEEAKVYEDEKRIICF
Sequence of Delta-type opioid receptor (P41143 whole entry): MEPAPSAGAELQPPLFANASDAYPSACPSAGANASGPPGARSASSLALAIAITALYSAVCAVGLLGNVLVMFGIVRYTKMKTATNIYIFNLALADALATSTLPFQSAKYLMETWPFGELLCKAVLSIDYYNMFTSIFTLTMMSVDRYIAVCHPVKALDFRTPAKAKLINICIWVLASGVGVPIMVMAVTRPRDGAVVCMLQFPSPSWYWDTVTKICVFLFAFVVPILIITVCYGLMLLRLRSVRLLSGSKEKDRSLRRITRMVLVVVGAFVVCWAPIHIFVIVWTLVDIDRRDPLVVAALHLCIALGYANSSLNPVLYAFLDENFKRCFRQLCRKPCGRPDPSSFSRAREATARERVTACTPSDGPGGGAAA

SMILES: NC(=O)c1c(NC(=O)c2ccc(N3C(=O)CCC3=O)cc2)sc2c1CCCC2
AC50 [4]: 0.853 µM (active) | AC50 [5]: 3.9 µM (active) | AC50 [6]: 0.165 µM (active)

SMILES: O=C(/C=C/c1ccccc1)Nc1nc(-c2ccncc2)cs1
AC50 [5]: 0.103 µM (active) | EC50 [7]: 0.843 µM (active) | EC50 [8]: 17.6 µM (active) | IC50 [9]: 28.8 µM (inactive)

SMILES: CC1CCN(S(=O)(=O)c2nnc(NC(=O)c3cccc(Cl)c3)s2)CC1
IC50 (HEK293 [10]): 11.1 µM (active) | IC50 [11]: > 20 µM (inactive) | IC50 (HEK293 [12]): > 20 µM (inactive) | EC50 [13]: > 53 µM (inactive) | IC50 (Tumor necrosis factor): 6.64 µM (active) | IC50 (HEK293 [14]): 17.2 µM (active) | IC50 (HEK293 [15]): 9.2 µM (active) | EC50 (HEK293 [16]): 2.64 µM (active) | IC50 (HEK293 [17]): > 20 µM (inactive) | EC50 [18]: 16.8 µM (active) | IC50 [19]: 5.14 µM (active) | IC50 [20]: 14.6 µM (active)

Now from value to molecule:

EC50 [1]: > 92.5 µM (inactive) | EC50 [2]: > 92.5 µM (inactive) | EC50 [3]: 3.35 µM (active) | EC50 (Mu-type opioid receptor): > 92.5 µM (inactive)
SMILES: O=C(OC1C2CCC1C1CN(CCc3ccccc3)CC12)c1ccccc1 (centres undefined)

AC50 [4]: 0.0101 µM (active)
SMILES: c1nc(NCC2CCCOC2)c2cc(-c3ccc4c(c3)OCO4)ccc2n1 (centres undefined)
